Reference: PMC11936910, “Population pharmacokinetics of polymyxin B in critically ill patients with carbapenem-resistant organisms infections: insights from steady-state trough and peak plasma concentration” (Frontiers in Pharmacology, 2025)
Read-outs that look alike come from different tables or passages of the source. Bridge positions count the residues as written; N and C are the ends. Square brackets hold non-standard residues; d marks the D form. Peptide text beside a SMILES is read from it. * marks the point of attachment. X1 = CC[C@H](C)CCCCC(=O)*; Dab = NCC[C@H](N)C(=O)O

How the values were obtained:
[1] = Population pharmacokinetic (PopPK) model of PMB, NONMEM, one-compartment; format: in vivo, critically ill patients
Excerpt: The PopPK model was developed using nonlinear mixed-effects modeling software: NONMEM (version 7.5.1, ICON plc, United States), Pirana (version 23.1.2, Certara L.P., United States), and PsN (version 5.3.0, https://uupharmacometrics.github.io/PsN/), with the first-order conditional estimation method including interaction (FOCE-I). The base model was selected based on goodness-of-fit (GOF) diagnostic plots, relative standard error (RSE) of parameters, and the objective function value (OFV). Spearman correlation was used to evaluate the relationships between covariates and individual empirical Bayesian estimates (EBEs) of PK parameters before covariate selection. A decrease in OFV >3.84 (P < 0.05, χ^2, df = 1) for forward addition and an increase >6.63 (P < 0.01, χ^2, df = 1) for backward elimination were the criteria for covariate inclusion. GOF plots were used to assess the model. To assess the stability of the final model and the precision of the PK parameters, a bootstrap method with 1,000 resampling iterations was performed. The final model was then subjected to 1,000 simulations for visual predictive checks (VPC) to evaluate the model’s predictive ability and accuracy. The accuracy and predictive performance of the model were further assessed using normalized prediction distribution errors (NPDE) plots. Statistical validation of the model was conducted using the t-test, Fisher’s test, Shapiro-Wilk test, and the Global test.
The patients were divided into a modeling group and a validation group based on the chronological order of enrollment and in accordance with the inclusion and exclusion criteria. External validation of the final model was performed using the validation group data. The mean prediction error (MPE), mean absolute prediction error (MAPE) (Equations 1, 2), F20 (20% of the absolute value of the prediction error), and F30 were calculated by comparing the predicted values with the observed values. Model performance was considered acceptable if MPE% ≤ ±20%, MAPE% ≤ 30%, F20 ≥ 35%, and F30 ≥ 50% ([Mao et al., 2018]). MPE%=1/N∑i=1Npredi−obsi/obsi×100 (1) MAPE%=1/N∑i=1Npredi−obsi/obsi×100 (2) predi denotes the i-th predicted value, and obsi its corresponding observed value.
A one-compartment model with first-order elimination best fit the population data of PMB in critically ill patients. Inter-individual variability was described using an exponential random effects model, while residual variability was described using both proportional and additive error models.

CRO strains = assay: MICs of PMB against CRO strains; format: cell-based, carbapenem-resistant organisms
[2] = Steady-state trough and peak plasma concentrations of PMB (UPLC-MS/MS) and AUCss,24h estimation; format: in vivo, critically ill patients; conditions: for Cmax / AUC(0-t): human, plasma, iv; for Cmax: sample immediately after infusion, UPLC-MS/MS, read-out: Cpeak, ss; for AUC(0-t): two-point method (Ctrough,ss and Cpeak,ss, first-order elimination equation), mean ± SD, SD, read-out: Equation-based AUCss,24h
Description: A single-center prospective study was conducted in the intensive care unit (ICU) of the First Affiliated Hospital of Army Medical University from August 2021 to July 2024. Inclusion criteria: (1) patients aged ≥18 years; (2) patients receiving intravenous PMB for CRO infections confirmed by pathogen testing; (3) patients receiving at least four consecutive doses of intravenous PMB, or a loading dose followed by at least three consecutive doses. Exclusion criteria: (1) patients with missing clinical data; (2) patients hospitalized for fewer than 7 days; (3) patients receiving any form of renal replacement therapy during PMB treatment; (4) pregnant women. The research protocol was approved by the Ethics Committee of our hospital (No. (A) KY2021064).
After at least 48 h of treatment, two blood samples were collected: one immediately before the infusion and the other immediately after. The exact times of blood sampling and infusion were recorded for each patient. Plasma was separated by low-temperature, low-speed centrifugation and stored at −70°C until analysis.
PMB concentrations were analyzed using a validated ultra-performance liquid chromatography-tandem mass spectrometry (UPLC-MS/MS) method. Briefly, using polymyxin E2 as the internal standard, the assay was linear over 0.2–20.0 mg·L^-1 and 0.05–5 mg·L^-1 (r > 0.995) for PMB1 and PMB2 respectively. […] PMB concentration was calculated as follows: total concentration of PMB = [PMB1 concentration/PMB1 molecular + PMB2 concentration/PMB2 molecular]*total PMB molecular ([Liu et al., 2023]).
Data analysis was performed SPSS (version 26.0, IBM, United States) and GraphPad Prism (version 8.3.0, CA, United States). Variables with a normal distribution were expressed as mean ± standard deviation (SD), while non-normally distributed variables were reported as median (interquartile range, IQR). Categorical data were presented as percentages (%). Comparisons between two groups were conducted using the Mann-Whitney U test for non-normally distributed data and the independent t-test for normally distributed data. The estimation of AUCss,24h used the two-point method was presented in Equations 3–5 ([Liu et al., 2023]), while the estimation of AUCss,24h based on the PopPK model was obtained by dividing the total 24-hour drug dose by the individual clearance. Bland-Altman analysis was performed to evaluate the consistency of AUCss,24h estimates obtained by the two methods. AUCss,24h values were categorized as “within the therapeutic window” (50–100 mg·h·L^-1), and McNemar’s test and Kappa test were applied to assess the consistency of AUCss,24h classifications. ke=lnCpeak,ss−lnCtrough,ss/τ−Infusion (3) Csoi′ =Cpeak,ss/e^−ke⋅Infusion (4) AUCss,24h=Csoi^′−Ctrough,ss/ke×n (5) Infusion time; τ: dosing interval; Csoi' is the exploratory concentration at the start of dosing based on the one-compartment linear elimination pharmacokinetic assumption; ke: elimination rate constant; n is the number of doses within 24 h.

[3] = cited from earlier work
Excerpt: The association between PMB pharmacokinetics and CrCL is still debated.

[4] = cited from earlier work; remark: listed apart in the source
Excerpt: In contrast, the lower CL observed in previous studies by Li et al. (1.18 L·h^-1) and Yu et al. (1.59 L·h^-1) may reflect differences in renal function and patient characteristics. Our study reported a value of 18 L, which ...

[5] = bootstrap median, 1,000 resampling iterations
[6] = CRO-infected patients, covariate TBW, ref Manchandani et al., 2018
[7] = CRO-infected patients, ref Kubin et al., 2018
[8] = Critically ill patients, covariate CrCL, ref Yu et al., 2020
[9] = Cystic fibrosis patients, covariate TBW, ref Crass et al., 2021
[10] = Kidney transplant patients, covariate CrCL, ref Li et al., 2021

With `CC[C@H](C)CCCCC(=O)N[C@@H](CCN)C(=O)N[C@H](C(=O)N[C@@H](CCN)C(=O)N[C@H]1CCNC(=O)[C@H]([C@@H](C)O)NC(=O)[C@H](CCN)NC(=O)[C@H](CCN)NC(=O)[C@H](CC(C)C)NC(=O)[C@@H](Cc2ccccc2)NC(=O)[C@H](CCN)NC1=O)[C@@H](C)O` [PMB, polymyxin B] (X1-[Dab]T[Dab][Dab][Dab][dF]L[Dab][Dab]T; lactam 4-C) the CL [1, 5] was 2.02 L/h, the V [1, 5] was 17.98 L and the V ([1]; final model estimate, modeling group n = 80) was 18 L. The CL ([1]; final model estimate, modeling group n = 80, 184 samples) was 2.03 L/h, the “Share with MIC of PMB 16 mg·L^-1” value (CRO strains; modeling group, 3/80) was 3.75% and the “Share with MIC of PMB 2 mg L^-1” value (CRO strains; modeling group, 8/80) was 10%. For the same molecule, the “Share with MIC of PMB 1 mg·L^-1” value (CRO strains; modeling group, 11/80) was 13.75%, the “Share with MIC of PMB 2 mg·L^-1” value (CRO strains; validation group, 2/15) was 13.33% and the “Share with MIC of PMB 1 mg·L^-1” value (CRO strains; validation group, 4/15) was 26.67%. The “Share with MIC of PMB ≤0.5 mg·L^-1” value (CRO strains; validation group, 9/15) was 60%, the “AUCss,24h within the range of 50–100, share of values” ([2]; estimated by the PPK model, 55/106 values (modeling and validation group)) was 51.89% and the “AUCss,24h within the range of 50–100, share of values” ([2]; estimated using the two-point method, 49/106 values) was 46.23%. It also gave a Cmax ([2]; modeling set (n = 80), median (IQR)) of 5730 ng/mL, an AUC(0-t) ([2]; modeling set) of 102000 ± 57900 ng·h/mL and a Cmax ([2]; validation set (n = 15), median (IQR)) of 4340 ng/mL. The AUC(0-t) ([2]; validation set) was 90500 ± 43400 ng·h/mL, the “Model-based AUCss,24h” value ([2]; modeling set, total 24-hour dose divided by individual clearance from PopPK model, median (IQR)) was 74.07 (55.81–94.07) mg·h/L and the Urinary recovery ([3]; 17 patients, ref Sandri et al., 2013b) was 0.98% to 17.40. For the same molecule, the Urinary recovery rate ([3]; four patients, ref Yu et al., 2020) was 23.56%, the CL [4, 6] was 2.50 L/h and the Vd [4, 6] was 34.30 L. For the same molecule, the CL [4, 7] was 2.37 L/h, the Vd [4, 7] was 34.40 L and the CL [4, 8] was 1.59 L/h. The Vd [4, 8] was 20.50 L, the CL [4, 9] was 2.09 L/h and the Vd [4, 9] was 12.70 L. For the same molecule, the CL [4, 10] was 1.18 L/h and the Vd [4, 10] was 12.90 L.
